The text below walks through data of patent US10695334B2, “Heteroaromatic carboxamide derivatives as plasma kallikrein inhibitors” (Boehringer Ingelheim International GmbH, priority 2018, dated 2020).

Common to all, as to assay type: biochemical
In assay [1] the target is T1, Human PKK (Homo sapiens (Human), UniProt P03952). Kind of assay: Inhibition of PKK, endpoint assay (human PKK). As to conditions: substrate H-Pro-Phe-Arg-AMC, 1 h room temperature. How it is done: Subsequently, PPACK II (Calbiochem) was added as a stop solution to achieve a final concentration of 1 μM and fluorescence was measured using an Envision Reader (PerkinElmer) with the wavelength excitation setting of 355 nm and the wavelength emission setting of 460 nm.

Assay [2] concerns the target PKK in kaolin activated human platelet poor plasma (Homo sapiens (Human), UniProt P03952). Kind of assay: Inhibition of PKK in kaolin activated human PPP. As to conditions: global fit over 25, 75, 250, 750 μg/mL kaolin. How it is done:
Platelet poor plasma (PPP) obtained from human wholeblood, anticoagulated with Na-Citrat, was incubated with various concentrations of the test compound together with either 25, 75, 250, or 750 μg/mL kaolin in assay buffer for 20 min at 37° C. such that for each kaolin dose used a concentration response was obtained for the test compound.

Assay [3] has as its target T1, Human PKK. Kind of assay: Inhibition of PKK (Ki), kinetic assay. As to conditions: 24° C., IC50 corrected for KM. How it is done:
Measurements were performed in a kinetic interval every 2nd minute for 16 min using a Spectramax M5 (Molecular Devices) with the following settings of the wavelength excitation of 350 nm and wavelength emission of 450 nm. The number of the compound corresponds to the number of the Example in the experimental section.
The pIC50 values were then fitted using a four-parametric fitting procedure using GraphPad Prism (version 6; GraphPad Software, Inc.).
(§1) Where the IC50 is in molar and the KM value in mM.

The target in the next assay is human TK1 (Homo sapiens (Human), UniProt P06870). Kind of assay: Inhibition of TK1 (Ki). Particulars: column head prints IC50, text above the table says Ki values. How it is done: The ability of compounds of formula (I) to inhibit plasma kallikrein (PKK), Factor Xlla (FXIIa), Factor Xla (FXIa), Factor Xa (FXa), Factor Ila (alpha-thrombin; FIIa), plasmin, trypsin, tissue kallikrein 1 (TK1), Factor VIIa (FVIIa), or FVIIa complexed with Tissue Factor, phospholipids and CaCl2 (FVIIa/TF/PL/CaCl2) was determined using the following biochemical assays in assay buffer (100 mM Tris, 150 mM NaCL, adjusted to a pH of 7.8 with HCl, and containing 0.1% (w/v) BSA and 0.05% (v/v) Tween20) in the presence of 1% (v/v) DMSO: EVALUATION OF THE INHIBITION OF PKK USING AN ENDPOINT ASSAY Human PKK (0.01 U/mL; Enzyme Research Laboratories) or rat PKK (0.625 nM; produced in-house) was incubated for 1 h at room temperature with 0.10 μM fluorogenic substrate H-Pro-Phe-Arg-AMC (11295 from Bachem) and various concentrations of the test compound in assay buffer. Subsequently, PPACK II (Calbiochem) was added as a stop solution to achieve a final concentration of 1 μM and fluorescence was measured using an Envision Reader (PerkinElmer) with the wavelength excitation setting of 355 nm and the wavelength emission setting of 460 nm.
Prior to the assay, human TK1 (R&D Systems) was activated by incubation with human trypsin (Calbiochem) in a 1:10,000 ratio for 15 min at 37° C. For assaying TK1 inhibitory activity, activated TK1 (31.25 nM or 1 U/mL) was incubated at 24° C. with 0.1 mM fluorogenic substrate H-Pro-Phe-Arg-AMC (11295 from Bachem) and various concentrations of the test compound in assay buffer. Measurements were performed in a kinetic interval every 2nd minute for 16 min using a Spectramax M5 (Molecular Devices) with the following settings of the wavelength excitation of 350 nm and wavelength emission of 450 nm.
The average Vmax values for the time interval from 2 to 12 min after initiation of the assay (expressed as either delta OD/min for assays using a chromogenic substrate or delta RFU/min for assays using a fluorigenic substrate, respectively) were plotted versus the Log of the concentration in molar of the evaluated inhibitor compound. The pIC50 values were then fitted using a four-parametric fitting procedure using GraphPad Prism (version 6; GraphPad Software, Inc.). Respective Ki values were obtained by correction of the IC50 values for the respective KM value of the used substrate (see Table A for the obtained KM values of the used substrates) using the following formula: […]
as §1

Some results are limits rather than exact numbers.

human TK1, sequence (P06870 25-262): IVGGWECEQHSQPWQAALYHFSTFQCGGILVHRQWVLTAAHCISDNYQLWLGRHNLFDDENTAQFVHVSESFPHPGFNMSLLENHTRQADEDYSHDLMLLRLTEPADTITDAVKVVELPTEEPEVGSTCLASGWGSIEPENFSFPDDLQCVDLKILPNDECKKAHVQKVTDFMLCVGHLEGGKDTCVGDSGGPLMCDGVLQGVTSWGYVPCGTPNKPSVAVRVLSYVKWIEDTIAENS
PKK in kaolin activated human platelet poor plasma, sequence (P03952 391-638): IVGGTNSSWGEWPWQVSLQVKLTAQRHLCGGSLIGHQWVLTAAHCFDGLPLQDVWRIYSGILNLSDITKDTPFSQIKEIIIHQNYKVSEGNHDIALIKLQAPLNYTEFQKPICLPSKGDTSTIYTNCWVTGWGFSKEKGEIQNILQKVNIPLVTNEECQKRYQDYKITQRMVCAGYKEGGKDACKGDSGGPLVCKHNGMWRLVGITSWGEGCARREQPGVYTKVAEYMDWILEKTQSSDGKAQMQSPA
PKK in kaolin activated human platelet poor plasma, sequence (P03952 20-390 partner): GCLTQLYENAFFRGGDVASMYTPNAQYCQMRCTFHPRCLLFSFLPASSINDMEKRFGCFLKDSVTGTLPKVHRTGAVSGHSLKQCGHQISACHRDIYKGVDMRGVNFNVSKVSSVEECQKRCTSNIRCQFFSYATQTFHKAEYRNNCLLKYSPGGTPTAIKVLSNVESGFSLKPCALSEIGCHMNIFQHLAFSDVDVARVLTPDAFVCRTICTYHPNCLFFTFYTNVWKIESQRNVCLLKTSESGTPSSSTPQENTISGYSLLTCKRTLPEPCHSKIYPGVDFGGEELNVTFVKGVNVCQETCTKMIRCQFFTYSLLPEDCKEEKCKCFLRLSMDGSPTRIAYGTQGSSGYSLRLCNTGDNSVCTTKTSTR
T1 sequence (P03952 391-638): as the sequence (P03952 391-638) above
T1 sequence (P03952 20-390 partner): as the sequence (P03952 20-390 partner) above

Take `Cc1nc(N2C[C@@H]3[C@H](CO)[C@@H]3C2)ccc1Cn1cnc(C(=O)N[C@@H]2CCc3c2n[nH]c3C)c1` (stereo in doubt) [Example 99, 1-({6-[(1R,5S,6S)-6-(Hydroxymethyl)-3-aza-bicyclo[3.1.0]hexan-3-yl]-2-methylpyridin-3-yl}-methyl)-N-[(6R)-3-methyl-2H,4H,5H,6H-cyclo-penta[c]pyrazol-6-yl]-1H-imidazole-4-carboxamide]: the IC50 is 1 nM on Human PKK [1] and > 10000 nM against human TK1. In assay [2], the IC90 turned out to be 388 nM. Further, the Ki on Human PKK [3] was 1 nM.

`Cc1nc(N2CC3CC3C2)ccc1Cn1cc(C(=O)NC2CCc3c(C)n[nH]c32)cn1` (centres unmarked) [Example 1, 1-[(6-{3-Azabicyclo[3.1.0]hexan-3-yl}-2-methylpyridin-3-yl)methyl]-N-{3-methyl-1H,4H,5H,6H-cyclopenta[c]pyrazol-6-yl}-1H-pyrazole-4-carboxamide]: the results for the IC50 against Human PKK [1] and against human TK1 were 2 nM and > 10000 nM, respectively. In addition, the IC90 in assay [2] was 705 nM. This compound also returned a Ki at Human PKK [3] of 1 nM.

With `Cc1nc(N2CC3CC3C2)ccc1Cn1cc(C(=O)N[C@@H]2CCc3c(C)n[nH]c32)cn1` (stereo partly drawn) [Example 3, 1-[(6-{3-Azabicyclo[3.1.0]hexan-3-yl}-2-methylpyridin-3-yl)methyl]-N-[(6R)-3-methyl-1H,4H,5H,6H-cyclopenta[c]pyrazol-6-yl]-1H-pyrazole-4-carboxamide], the values for the half-inhibitory concentration (IC50) on Human PKK [1] and against human TK1 were 0.8 nM and > 10000 nM, respectively. The IC90 in assay [2] amounted to 679 nM. For the same compound, affinity at Human PKK [3] was put at a Ki of 0.5 nM.

Take `Cc1nc(N2CC3(CC3)C2)ccc1Cn1cc(C(=O)N[C@@H]2CCc3c(C)n[nH]c32)cn1` [Example 11]: 1 nM corresponded to half-maximal inhibition against Human PKK [1] (IC50). The IC90 in assay [2] is 598 nM.

As for `Cc1nc(N2CC3C(C2)C3(F)F)ccc1Cn1cc(C(=O)N[C@@H]2CCc3c(C)n[nH]c32)c2cncnc21` (stereo partly drawn) [Example 13, 7-[(6-{6,6-Difluoro-3-azabicyclo[3.1.0]hexan-3-yl}-2-methylpyridin-3-yl)methyl]-N-[(6R)-3-methyl-1H,4H,5H,6H-cyclopenta[c]pyrazol-6-yl]-7H-pyrrolo[2,3-d]pyrimidine-5-carboxamide], the IC50 at Human PKK [1] was 0.5 nM; against human TK1, > 10000 nM. The Ki on Human PKK [3] came out at 0.1 nM.

Regarding `Cc1nc(N2CC3CC3C2)ccc1Cn1cc(C(=O)N[C@@H]2CCc3c(C)n[nH]c32)c(C(F)F)n1` (stereo partly drawn) [Example 14, 1-[(6-{3-Azabicyclo[3.1.0]hexan-3-yl}-2-methyl-pyridin-3-y)methyl]-3-(difluoromethyl)-N-[(6R)-3-methyl-1H,4H,5H,6H-cyclopenta[c]pyrazol-6-yl]-1H-pyrazole-4-carboxamide], the IC50 at Human PKK [1] is 0.5 nM; at human TK1 it was > 10000 nM. On Human PKK [3], this compound yielded an inhibition constant (Ki) of 0.1 nM.

On to `COCc1nn(Cc2ccc(N3CC4C(C3)C4(F)F)nc2C)cc1C(=O)N[C@@H]1CCc2c(C)n[nH]c21` (stereo partly drawn) [Example 15, 1-[(6-{6,6-Difluoro-3-azabicyclo[3.1.0]hexan-3-yl}-2-methylpyridin-3-yl)methyl]-3-(methoxymethyl)-N-[(6R)-3-methyl-1H,4H,5H,6H-cyclopenta[c]-pyrazol-6-yl]-1H-pyrazole-4-carboxamide], for which the half-inhibitory concentration (IC50) was 0.8 nM against Human PKK [1] and > 10000 nM against human TK1. Moreover, on Human PKK [3], affinity was put at a Ki of 0.1 nM.

Turning to `COCc1nn(Cc2ccc(N3CC4CC4C3)nc2C)cc1C(=O)N[C@@H]1CCc2c(C)n[nH]c21` (stereo partly drawn) [Example 16, 1-[(6-{3-Azabicyclo[3.1.0]hexan-3-yl}-2-methyl-pyridin-3-yl)methyl]-3-(methoxymethyl)-N-[(6R)-3-methyl-1H,4H,5H,6H-cyclopenta[c]pyrazol-6-yl]-1H-pyrazole-4-carboxamide], the IC50 against Human PKK [1] is 0.9 nM; against human TK1 it was > 10000 nM. Moreover, the affinity at Human PKK [3] corresponds to a Ki of 0.1 nM.

Consider `Cc1nc(N2CC3CC3C2)ccc1Cn1cc(C(=O)N[C@@H]2CCc3c(C)n[nH]c32)c2cncnc21` (stereo partly drawn) [Example 17, 7-[(6-{3-Azabicyclo[3.1.0]hexan-3-yl}-2-methyl-pyridin-3-yl)methyl]-N-[(6R)-3-methyl-1H,4H,5H,6H-cylcopenta[c]pyrazol-6-yl]-7H-pyrrolo[2,3-d]pyrimidine-5-carboxamide], for which the half-inhibitory concentration (IC50) against Human PKK [1] was 0.9 nM; against human TK1, > 10000 nM. In addition, the affinity on Human PKK [3], expressed as Ki, was 0.1 nM.

As for `Cc1nc(N2CC3CC3C2)ccc1Cn1cc(C(=O)N[C@@H]2CCc3c(C)n[nH]c32)c(C)n1` (stereo partly drawn) [Example 19, 1-[(6-{3-Azabicyclo[3.1.0]hexan-3-yl}-2-methyl-pyridin-3-yl)methyl]-3-methyl-N-[(6R)-3-methyl-1H,4H,5H,6H-cyclopenta[c]pyrazol-6-yl]-1H-pyrazole-4-carboxamide], the half-maximal inhibitory concentration (IC50) against Human PKK [1] is 1 nM; at human TK1, > 10000 nM. The same compound returned an inhibition constant (Ki) at Human PKK [3] of 0.3 nM.

Take `COc1nn(Cc2ccc(N3CC4CC4C3)nc2C)cc1C(=O)N[C@@H]1CCc2c(C)n[nH]c21` (stereo partly drawn) [Example 20, 1-[(6-{3-Azabicyclo[3.1.0]hexan-3-yl}-2-methyl-pyridin-3-yl)methyl]-3-methoxy-N-[(6R)-3-methyl-1H,4H,5H,6H-cyclopenta[c]pyrazol-6-yl]-1H-pyrazole-4-carboxamide]: the IC50 against Human PKK [1] was 1 nM; at human TK1, > 10000 nM. For the same compound, affinity on Human PKK [3] was put at a Ki of 0.2 nM.

Turning to `Cc1nc(N2CC3C(C2)C3(F)F)ncc1Cn1cc(C(=O)N[C@@H]2CCc3c(C)n[nH]c32)c2cncnc21` (stereo partly drawn) [Example 21, 7-[(2-{6,6-Difluoro-3-azabicyclo[3.1.0]hexan-3-yl}-4-methylpyrimidin-5-yl)methyl]-N-[(6R)-3-methyl-1H,4H,5H,6H-cyclopenta[c]pyrazol-6-yl]-7H-pyrrolo[2,3-d]pyrimidine-5-carboxamide], the values for the concentration for half-maximal inhibition (IC50) against Human PKK [1] and against human TK1 were 1 nM and > 10000 nM, respectively. Moreover, the Ki on Human PKK [3] worked out at 0.1 nM.

As for `COCc1nn(Cc2ccc(N3CC4(CC4)C3)nc2C)cc1C(=O)N[C@@H]1CCc2c(C)n[nH]c21` [Example 22, 1-[(6-{5-Azaspiro[2.3]hexan-5-yl}-2-methylpyridin-3-yl)methyl]-3-(methoxymethyl)-N-[(6R)-3-methyl-1H,4H,5H,6H-cyclopenta[c]pyrazol-6-yl]-1H-pyrazole-4-carboxamide], the concentration for half-maximal inhibition (IC50) on Human PKK [1] was 2 nM; at human TK1 it was > 10000 nM. Further, the affinity on Human PKK [3], expressed as Ki, was 0.1 nM.

On to `Cc1nc(N2CC3CC3C2)ncc1Cn1cc(C(=O)N[C@@H]2CCc3c(C)n[nH]c32)c2cncnc21` (stereo partly drawn) [Example 23, 7-[(2-{3-Azabicyclo[3.1.0]hexan-3-yl}-4-methyl-pyrimidin-5-yl)methyl]-N-[(6R)-3-methyl-1H,4H,5H,6H-cyclopenta[c]pyrazol-6-yl]-7H-pyrrolo[2,3-d]pyrimidine-5-carboxamide], for which the figures for the IC50 against Human PKK [1] and on human TK1 were 2 nM and > 10000 nM, respectively. Moreover, the Ki at Human PKK [3] was 0.3 nM.

Compound `Cc1nc(N2CC(C)(C)C2)ccc1Cn1cc(C(=O)N[C@@H]2CCc3c2n[nH]c3C)cn1` [Example 67, 1-{[6-(3,3-Dimethylazetidin-1-yl)-2-methylpyridin-3-yl]methyl}-N-[(6R)-3-methyl-2H,4H,5H,6H-cyclopenta[c]pyrazol-6-yl]-1H-pyrazole-4-carboxamide] came in with a concentration for half-maximal inhibition (IC50) on Human PKK [1] of 2 nM. Besides, in assay [2], the 90% effect concentration (IC90) was 545 nM. Affinity on Human PKK [3] was put at a Ki of 1 nM.
